# Experimental data published in Sander's compilation of Henry's law constants.
# Key:
# [1] = Henry solubility constant Hcp at 303 K (mol/(m3 Pa))
# [2] = Henry solubility constant Hcp at 298.15 K (mol/(m3 Pa))
# [3] = Henry solubility constant Hcp at 295 K (mol/(m3 Pa)); settings: reference: de Wolf and Lieder (1998)
# [4] = Henry solubility constant Hcp at 296 K (mol/(m3 Pa))
# [5] = Henry solubility constant Hcp at 310 K (mol/(m3 Pa)); settings: reference: McIntosh and Heffron (2000)
# [6] = Henry solubility constant Hcp at 293 K (mol/(m3 Pa))
# [7] = reference: Warner et al. (1980)
# [8] = reference: Bierwagen and Keller (2001)
# [9] = reference: Bissonette et al. (1990)
# [10] = reference: Garbarini and Lion (1985)
# [11] = reference: Görgényi et al. (2002)
# [12] = reference: Nielsen et al. (1994)
# [13] = reference: Ramachandran et al. (1996)
# [14] = reference: Robbins et al. (1993)
# [15] = reference: Schoene and Steinhanses (1985)
# [16] = reference: Turner et al. (1996)
# [17] = reference: Vane and Giroux (2000)
# [18] = reference: Yurteri et al. (1987)
# [19] = reference: Fendinger et al. (1989)
smiles,measurement,setting,value
CCC(=O)CC [3-pentanone],Henry solubility constant Hcp at 303 K,[1]; reference: Saylor et al. (1938),9.7e-05
same,Henry solubility constant Hcp,[2]; reference: Hovorka et al. (2019),0.11
same,Henry solubility constant Hcp,[2]; reference: Ji and Evans (2007),0.16
"Clc1cccc(Cl)c1 [1,3-dichlorobenzene]",Henry solubility constant Hcp,[2]; reference: Li et al. (2008),0.0029
same,Henry solubility constant Hcp,[2]; [7],0.0038
same,Henry solubility constant Hcp at 295 K,[3],0.0037
Cc1ccccc1 [methylbenzene],Henry solubility constant Hcp at 296 K,[4]; reference: Anderson (1992),0.0015
same,Henry solubility constant Hcp at 296 K,[4]; reference: David et al. (2000),0.0015
same,Henry solubility constant Hcp at 296 K,[4]; reference: Miller and Stuart (2000),0.0016
same,Henry solubility constant Hcp at 310 K,[5],0.00085
same,Henry solubility constant Hcp,[2]; reference: Allen et al. (1998),0.0015
same,Henry solubility constant Hcp,[2]; reference: Bakierowska and Trzeszczyński (2003),0.0017
same,Henry solubility constant Hcp,[2]; [8],0.0017
same,Henry solubility constant Hcp,[2]; [9],0.0014
same,Henry solubility constant Hcp,[2]; reference: Bobadilla et al. (2003),0.0021
same,Henry solubility constant Hcp,[2]; reference: Brown and Wasik (1974),0.0016
same,Henry solubility constant Hcp,[2]; reference: Ervin et al. (1980),0.0015
same,Henry solubility constant Hcp,[2]; reference: Ettre et al. (1993),0.0015
same,Henry solubility constant Hcp,[2]; [10],0.0015
same,Henry solubility constant Hcp,[2]; [11],0.0015
same,Henry solubility constant Hcp,[2]; reference: Hartkopf and Karger (1973),0.002
same,Henry solubility constant Hcp,[2]; reference: Keeley et al. (1988),0.0016
same,Henry solubility constant Hcp,[2]; reference: Kish et al. (2013),0.0015
same,Henry solubility constant Hcp,[2]; reference: Kutsuna and Kaneyasu (2021),0.0015
same,Henry solubility constant Hcp,[2]; reference: Lau et al. (2010),0.0013
same,Henry solubility constant Hcp,[2]; reference: Lee et al. (2013),0.0017
same,Henry solubility constant Hcp,[2]; reference: Lei et al. (2004),0.0014
same,Henry solubility constant Hcp,[2]; reference: Li et al. (2008),0.0015
same,Henry solubility constant Hcp,[2]; reference: Lin and Chou (2006),0.0015
same,Henry solubility constant Hcp,[2]; reference: Lodge and Danso (2007),0.0014
same,Henry solubility constant Hcp,[2]; reference: Mackay et al. (1979),0.0015
same,Henry solubility constant Hcp,[2]; [12],0.0016
same,Henry solubility constant Hcp,[2]; reference: Park et al. (1997),0.0013
same,Henry solubility constant Hcp,[2]; reference: Peng and Wan (1997),0.0017
same,Henry solubility constant Hcp,[2]; reference: Peng and Wan (1998),0.0021
same,Henry solubility constant Hcp,[2]; reference: Perlinger et al. (1993),0.0015
same,Henry solubility constant Hcp,[2]; [13],0.0015
same,Henry solubility constant Hcp,[2]; [14],0.0015
same,Henry solubility constant Hcp,[2]; reference: Sanemasa et al. (1981),0.0016
same,Henry solubility constant Hcp,[2]; [15],0.0012
same,Henry solubility constant Hcp,[2]; reference: Sieg et al. (2009),0.0015
same,Henry solubility constant Hcp,[2]; reference: Tsibul’skii et al. (1979),0.0015
same,Henry solubility constant Hcp,[2]; [16],0.0014
same,Henry solubility constant Hcp,[2]; [17],0.0019
same,Henry solubility constant Hcp,[2]; reference: Vitenberg et al. (1975),0.0019
same,Henry solubility constant Hcp,[2]; [7],0.0017
same,Henry solubility constant Hcp,[2]; reference: Wasik and Tsang (1970),0.0017
same,Henry solubility constant Hcp at 295 K,[3],0.002
same,Henry solubility constant Hcp at 293 K,[6]; reference: Yu (1992),0.0037
same,Henry solubility constant Hcp at 293 K,[6]; [18],0.0017
CCCCC(=O)OCC [ethyl pentanoate],Henry solubility constant Hcp at 303 K,[1]; reference: Meynier et al. (2003),0.14
C=CC(C)(C)O [2-methyl-3-buten-2-ol],Henry solubility constant Hcp at 303 K,[1]; reference: Iraci et al. (1999),0.64
ClC=C(Cl)Cl [trichloroethene],Henry solubility constant Hcp at 296 K,[4]; reference: David et al. (2000),0.001
same,Henry solubility constant Hcp,[2]; [8],0.0012
same,Henry solubility constant Hcp,[2]; [9],0.001
same,Henry solubility constant Hcp,[2]; reference: Chen et al. (2012),0.001
same,Henry solubility constant Hcp,[2]; reference: Cooling et al. (1992),0.00097
same,Henry solubility constant Hcp,[2]; reference: Ervin et al. (1980),0.00074
same,Henry solubility constant Hcp,[2]; [10],0.001
same,Henry solubility constant Hcp,[2]; reference: Gossett (1987),0.001
same,Henry solubility constant Hcp,[2]; reference: Gossett et al. (1985),0.0011
same,Henry solubility constant Hcp,[2]; [11],0.00095
same,Henry solubility constant Hcp,[2]; reference: Heron et al. (1998),0.00093
same,Henry solubility constant Hcp,[2]; reference: Khalfaoui and Newsham (1994b),0.00095
same,Henry solubility constant Hcp,[2]; reference: Knauss et al. (2000),0.0011
same,Henry solubility constant Hcp,[2]; reference: Lincoff and Gossett (1984),0.00097
same,Henry solubility constant Hcp,[2]; reference: Munz and Roberts (1987),0.00096
same,Henry solubility constant Hcp,[2]; [12],0.0013
same,Henry solubility constant Hcp,[2]; reference: Park et al. (1997),0.00088
same,Henry solubility constant Hcp,[2]; reference: Peng and Wan (1997),0.0011
same,Henry solubility constant Hcp,[2]; reference: Peng and Wan (1998),0.0014
same,Henry solubility constant Hcp,[2]; [13],0.00083
same,Henry solubility constant Hcp,[2]; [14],0.00094
same,Henry solubility constant Hcp,[2]; [15],0.0009
same,Henry solubility constant Hcp,[2]; reference: Shimotori and Arnold (2003),0.001
same,Henry solubility constant Hcp,[2]; reference: Tancrède and Yanagisawa (1990),0.0013
same,Henry solubility constant Hcp,[2]; [16],0.00085
same,Henry solubility constant Hcp,[2]; [17],0.0011
same,Henry solubility constant Hcp,[2]; [7],0.00084
same,Henry solubility constant Hcp at 293 K,[6]; reference: Chiang et al. (1998),0.0011
same,Henry solubility constant Hcp at 293 K,[6]; reference: Pearson and McConnell (1975),0.0011
same,Henry solubility constant Hcp at 293 K,[6]; [18],0.00094
CCCN(CCC)c1c([N+](=O)[O-])cc(C(F)(F)F)cc1[N+](=O)[O-] [trifluralin],Henry solubility constant Hcp at 296 K,[4]; [19],0.19
same,Henry solubility constant Hcp,[2]; [19],0.17
same,Henry solubility constant Hcp at 293 K,[6]; reference: Rice et al. (1997b),0.095
